Key:
Assay type in all cases: cell-based
Gardnerella vaginalis = test: MIC by agar dilution method (CLSI M07-A8 / M11-A7); efficiency coefficient derived; conditions: for MIC: agar dilution; for in vitro antimicrobial activity (in words): tested Gardnerella vaginalis strains
Protocol: (§1) The in vitro activity of nifuratel sulfoxide racemate, R-nifuratel sulfoxide and S-nifuratel sulfoxide was tested on a panel of bacteria, which included both Gram positive and Gram negative bacteria.
(§2) The minimum inhibitory concentrations (MICs) of the compounds were determined by the broth microdilution method or by the agar dilution method, according to the National Committee for Clinical Laboratory Standards (CLSI) reference methods M07-A8 and M11-A7.
(§3) The efficiency coefficient (EC) of nifuratel sulfoxide vs. nifuratel was calculated for each tested strain as follows: EC = relative oral bioavailability*[…] [formula]
(§4) Where: • nifS = nifuratel sulfoxide • nif = nifuratel • EC = 1 is indicative of equivalent efficiency between nifuratel sulfoxide and nifuratel. • EC < 1 is indicative of a lower efficiency of nifuratel sulfoxide vs. nifuratel • EC > 1 is indicative of a higher efficiency of nifS vs. nif

Atopobium vaginae = test: as above; conditions: for MIC: agar dilution; for in vitro antimicrobial activity (in words): tested Atopobium vaginae strains
Protocol: as §1, §2, §3, §4

[1] = tested on: Lactobacillus iners ATCC 55195; test: MIC by broth microdilution method (CLSI M07-A8 / M11-A7); conditions: broth microdilution; Lactobacillus iners ATCC 55195
Protocol: The in vitro activity of nifuratel sulfoxide racemate, R-nifuratel sulfoxide and S-nifuratel sulfoxide was tested on a panel of bacteria, which included both Gram positive and Gram negative bacteria. The minimum inhibitory concentrations (MICs) of the compounds were determined by the broth microdilution method or by the agar dilution method, according to the National Committee for Clinical Laboratory Standards (CLSI) reference methods […]-A8 and M11-A7.

[2] = tested on: Salmonella typhimurium ATCC 14028; test: MIC by broth microdilution method (CLSI M07-A8 / M11-A7); efficiency coefficient derived; conditions: broth microdilution; Salmonella typhimurium ATCC 14028
Protocol: as §1, §2, §3, §4

[3] = tested on: Klebsiella pneumonia ATCC 10031; test: as above; conditions: broth microdilution; Klebsiella pneumonia ATCC 10031
Protocol: as §1, §2, §3, §4

[4] = tested on: Staphylococcus aureus (MRSA); test: as above; conditions: broth microdilution; Staphylococcus aureus (MRSA)
Protocol: as §1, §2, §3, §4

[5] = tested on: Proteus mirabilis ATCC 14153; test: as above; conditions: broth microdilution; Proteus mirabilis ATCC 14153
Protocol: as §1, §2, §3, §4

[6] = tested on: Salmonella paratyphi B ATCC 10719; test: as above
Protocol: as §1, §2, §3, §4

[7] = tested on: Shigella sonnei ATCC 11060; test: as above
Protocol: as §1, §2, §3, §4

[8] = tested on: Micrococcus pyogenes ATCC 11631; test: as above; conditions: broth microdilution; Micrococcus pyogenes ATCC 11631
Protocol: as §1, §2, §3, §4

[9] = tested on: Escherichia coli ATCC 11775; test: as above; conditions: broth microdilution; Escherichia coli ATCC 11775
Protocol: as §1, §2, §3, §4

[10] = tested on: Neisseria gonorrhoeae ATCC 19424; test: as above; conditions: broth microdilution; Neisseria gonorrhoeae ATCC 19424
Protocol: as §1, §2, §3, §4

Structure (SMILES)	MIC (Gardnerella vaginalis; strain ATCC 14018)	MIC (Gardnerella vaginalis; strain C2)	MIC (Gardnerella vaginalis; strain D2)	MIC (Gardnerella vaginalis; strain E2)	MIC (Gardnerella vaginalis; strain G2)	MIC (Gardnerella vaginalis; strain H2)	MIC (Gardnerella vaginalis; strain J2)	MIC (Gardnerella vaginalis; strain K2)	in vitro antimicrobial activity (in words) (Gardnerella vaginalis)	MIC (Atopobium vaginae; strain CCUG 38953)	MIC (Atopobium vaginae; strain CCUG 39382)	MIC (Atopobium vaginae; strain CCUG 42099)	MIC (Atopobium vaginae; strain CCUG 43049)	MIC (Atopobium vaginae; strain CCUG 44061)	MIC (Atopobium vaginae; strain CCUG 44156)	MIC (Atopobium vaginae; strain CCUG 48515)	MIC (Atopobium vaginae; strain CCUG 55226)	MIC (Atopobium vaginae; strain CCUG 55227)	in vitro antimicrobial activity (in words) (Atopobium vaginae)	MIC [1]	also measured
C[S+]([O-])CC1CN(N=Cc2ccc([N+](=O)[O-])o2)C(=O)O1 (mixture of isomers) [R-Nifuratel sulfoxide, (R)-nifuratel sulfoxide]	8 µg/mL	32 µg/mL	64 µg/mL	64 µg/mL	64 µg/mL	16 µg/mL	32 µg/mL	64 µg/mL	good activity	1 µg/mL	1 µg/mL	1 µg/mL	4 µg/mL	1 µg/mL	2 µg/mL	2 µg/mL	2 µg/mL	1 µg/mL	good activity	16 µg/mL	MIC [2]: 16 µg/mL; MIC [3]: 16 µg/mL; MIC [4]: 16 µg/mL; MIC [5]: 8 µg/mL; MIC [6]: 16 µg/mL; MIC [7]: 16 µg/mL; MIC [8]: 32 µg/mL; MIC [9]: 16 µg/mL; MIC [10]: 2 µg/mL
C[S+]([O-])CC1CN(N=Cc2ccc([N+](=O)[O-])o2)C(=O)O1 (mixture of isomers) [S-Nifuratel sulfoxide, (S)-nifuratel sulfoxide]	16 µg/mL	16 µg/mL	16 µg/mL	32 µg/mL	16 µg/mL	8 µg/mL	16 µg/mL	32 µg/mL	good activity	2 µg/mL	2 µg/mL	16 µg/mL	8 µg/mL	1 µg/mL	2 µg/mL	2 µg/mL	8 µg/mL	4 µg/mL	good activity	32 µg/mL	MIC [2]: 16 µg/mL; MIC [3]: 16 µg/mL; MIC [4]: 16 µg/mL; MIC [5]: 4 µg/mL; MIC [6]: 8 µg/mL; MIC [7]: 16 µg/mL; MIC [8]: 64 µg/mL; MIC [9]: 16 µg/mL; MIC [10]: 2 µg/mL
